Activity calls are given as the source filed them.
Key:
[1] = target: T1, Corticotropin-releasing factor receptor 2/Corticotropin-releasing factor-binding protein (Homo sapiens, UniProt P24387+Q13324); test: Dose Response confirmation of uHTS hits for small molecule antagonists of the CRF-binding protein and CRF-R2 receptor complex.; type: functional; conditions: read-out: IC50_Mean
T1 sequence (Q13324 whole entry): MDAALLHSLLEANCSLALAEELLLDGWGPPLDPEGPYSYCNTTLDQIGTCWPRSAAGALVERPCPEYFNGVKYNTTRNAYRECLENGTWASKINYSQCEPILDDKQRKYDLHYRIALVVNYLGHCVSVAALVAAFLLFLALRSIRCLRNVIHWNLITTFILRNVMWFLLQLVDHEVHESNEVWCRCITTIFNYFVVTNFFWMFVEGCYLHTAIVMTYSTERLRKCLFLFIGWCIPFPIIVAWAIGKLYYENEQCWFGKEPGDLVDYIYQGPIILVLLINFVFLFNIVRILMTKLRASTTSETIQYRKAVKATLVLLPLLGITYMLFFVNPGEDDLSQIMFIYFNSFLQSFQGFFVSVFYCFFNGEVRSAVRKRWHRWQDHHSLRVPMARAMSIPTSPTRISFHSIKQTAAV
T1 sequence (P24387 whole entry): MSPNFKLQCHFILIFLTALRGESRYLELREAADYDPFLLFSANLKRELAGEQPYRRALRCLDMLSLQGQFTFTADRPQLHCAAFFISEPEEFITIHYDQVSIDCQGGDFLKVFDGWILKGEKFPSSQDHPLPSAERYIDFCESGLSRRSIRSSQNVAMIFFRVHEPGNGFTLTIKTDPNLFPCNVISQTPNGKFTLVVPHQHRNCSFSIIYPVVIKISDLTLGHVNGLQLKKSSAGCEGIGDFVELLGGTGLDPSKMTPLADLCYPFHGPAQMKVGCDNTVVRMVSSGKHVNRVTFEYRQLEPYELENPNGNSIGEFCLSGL

[2] = target: T1, Corticotropin-releasing factor receptor 2/Corticotropin-releasing factor-binding protein; test: activators of CRF receptor 2 with binding protein – uHTS hits, confirmation (AID 602473); type: functional; conditions: read-out: EC50_Mean
[3] = target: T2, Polyadenylate-binding protein 1 (Homo sapiens, UniProt P11940); test: MLLE domain peptide-binding blockers, IC50 – biochemical, fluorescence polarization, FITC-PAM2 peptide, dose response (AID 602259); type: functional; conditions: read-out: IC50_Mean
[4] = target: T2, Polyadenylate-binding protein 1; test: MLLE binding blockers, Cy5 peptide tracer – biochemical, fluorescence polarization, Cy5-PAM2 peptide, secondary, miRNA deadenylation inhibitor project, dose response (AID 602260); type: functional; conditions: read-out: IC50_Mean
[5] = microbe, parasite or virus in culture; type: functional; conditions: Mycobacterium tuberculosis
[6] = THP-1 cell cytotoxicity, dose response, cytotoxicity control for non-replicating M. tuberculosis project (AID 489025); type: functional
[7] = target: T3, Heat shock factor protein 1 (Mus musculus, UniProt P38532); test: decrease of HSF1-responsive luciferase luminescence – cell-based, NIH3T3, dose retest, confirmation (AID 2382); type: functional;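 note: NIH3T3 fibroblasts with HSF1-driven luciferase reporter stressed by proteasome inhibitor MG132; luminescence from HSF1-driven luciferase expression after 8 hours of MG132 stress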
T3 sequence (P38532 whole entry): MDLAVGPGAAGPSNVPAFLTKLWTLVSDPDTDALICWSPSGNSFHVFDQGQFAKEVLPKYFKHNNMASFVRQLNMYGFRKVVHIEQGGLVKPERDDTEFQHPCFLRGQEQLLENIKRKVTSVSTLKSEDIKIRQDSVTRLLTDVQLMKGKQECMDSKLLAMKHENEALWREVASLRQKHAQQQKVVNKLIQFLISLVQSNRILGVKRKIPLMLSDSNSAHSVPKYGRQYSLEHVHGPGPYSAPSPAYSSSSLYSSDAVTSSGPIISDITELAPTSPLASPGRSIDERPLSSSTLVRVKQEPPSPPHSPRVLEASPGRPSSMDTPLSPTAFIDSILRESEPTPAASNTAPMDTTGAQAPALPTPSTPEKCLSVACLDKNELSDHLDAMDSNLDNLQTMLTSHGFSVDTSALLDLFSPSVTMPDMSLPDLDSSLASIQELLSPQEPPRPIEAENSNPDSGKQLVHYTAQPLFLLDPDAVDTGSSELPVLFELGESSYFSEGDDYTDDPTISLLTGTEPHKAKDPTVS

Protein RecA = target: T4, Protein RecA (Mycobacterium tuberculosis, UniProt P9WHJ3); test: Fluorescence Cell-Free Homogeneous Dose Retest to Identify Inhibitors of RecA-Intein Splicing Activity. [Related pubchem assays (depositor defined):AID2097, AID2223, AID489010, AID492950]; type: functional
T4 sequence (P9WHJ3 whole entry): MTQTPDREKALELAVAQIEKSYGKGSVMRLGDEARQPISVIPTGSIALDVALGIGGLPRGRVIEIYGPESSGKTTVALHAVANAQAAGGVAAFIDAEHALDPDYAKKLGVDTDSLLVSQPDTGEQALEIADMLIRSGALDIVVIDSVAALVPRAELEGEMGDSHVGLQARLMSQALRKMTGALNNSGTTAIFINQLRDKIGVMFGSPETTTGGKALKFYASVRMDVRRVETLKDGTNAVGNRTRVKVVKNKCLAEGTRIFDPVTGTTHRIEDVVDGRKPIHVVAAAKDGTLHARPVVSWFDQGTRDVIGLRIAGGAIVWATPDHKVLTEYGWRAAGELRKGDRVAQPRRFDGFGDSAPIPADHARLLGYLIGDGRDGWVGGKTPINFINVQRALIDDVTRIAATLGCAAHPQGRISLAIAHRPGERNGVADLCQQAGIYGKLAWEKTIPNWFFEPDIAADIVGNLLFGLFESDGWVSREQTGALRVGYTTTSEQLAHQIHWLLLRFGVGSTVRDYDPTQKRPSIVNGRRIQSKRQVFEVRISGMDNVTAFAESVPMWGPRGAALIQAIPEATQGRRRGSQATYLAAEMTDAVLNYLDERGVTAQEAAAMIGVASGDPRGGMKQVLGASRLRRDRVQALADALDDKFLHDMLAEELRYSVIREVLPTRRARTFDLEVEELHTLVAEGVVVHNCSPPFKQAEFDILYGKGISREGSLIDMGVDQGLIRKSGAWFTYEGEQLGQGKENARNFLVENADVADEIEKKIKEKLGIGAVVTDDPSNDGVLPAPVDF

Genome polyprotein = Genome polyprotein (dengue virus type 2, UniProt P29990); test: flavivirus cap methylation enzyme inhibition – biochemical, confirmation dose response, primary screen (AID 588689); type: functional
[8] = target: T5, Replicative DNA helicase DnaB (Mycobacterium tuberculosis, UniProt P9WMR3); test: DnaB intein splicing inhibitors, dose response, biochemical, cell-free fluorescence (AID 449749); type: functional
T5 sequence (P9WMR3 whole entry): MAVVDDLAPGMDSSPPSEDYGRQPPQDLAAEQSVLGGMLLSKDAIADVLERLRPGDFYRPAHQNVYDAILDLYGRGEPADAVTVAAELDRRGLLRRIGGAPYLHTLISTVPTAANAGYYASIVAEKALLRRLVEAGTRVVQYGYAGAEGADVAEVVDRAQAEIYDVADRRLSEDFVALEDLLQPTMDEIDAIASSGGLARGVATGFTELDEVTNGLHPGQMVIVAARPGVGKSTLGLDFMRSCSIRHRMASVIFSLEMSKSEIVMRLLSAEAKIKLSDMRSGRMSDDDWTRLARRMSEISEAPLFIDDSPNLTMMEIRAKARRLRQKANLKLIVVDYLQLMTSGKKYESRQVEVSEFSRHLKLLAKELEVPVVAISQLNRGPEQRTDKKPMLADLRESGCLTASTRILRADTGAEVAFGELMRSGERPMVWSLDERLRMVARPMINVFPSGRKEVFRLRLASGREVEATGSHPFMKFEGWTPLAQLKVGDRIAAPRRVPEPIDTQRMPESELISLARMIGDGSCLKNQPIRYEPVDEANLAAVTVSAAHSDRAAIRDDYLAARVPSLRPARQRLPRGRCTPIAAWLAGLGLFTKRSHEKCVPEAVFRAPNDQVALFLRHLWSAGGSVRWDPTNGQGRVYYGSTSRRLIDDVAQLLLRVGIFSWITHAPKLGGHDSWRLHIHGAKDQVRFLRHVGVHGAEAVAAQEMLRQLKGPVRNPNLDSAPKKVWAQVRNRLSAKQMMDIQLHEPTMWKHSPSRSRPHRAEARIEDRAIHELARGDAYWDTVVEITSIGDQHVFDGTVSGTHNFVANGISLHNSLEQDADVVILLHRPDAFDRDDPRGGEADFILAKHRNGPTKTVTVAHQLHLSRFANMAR

BJ [9] = test: BJ-TERT-LT-ST fibroblast viability loss – cell-based, RAS-independent, luminescence, dose response (AID 1935); type: functional; conditions: Homo sapiens;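 note: BJ fibroblasts immortalized with TERT plus LT and ST oncogenes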
BJ [10] = test: cells; type: functional, cell-based; conditions: Homo sapiens
BJ [11] = test: BJ-TERT fibroblast viability loss – cell-based, RAS-independent, luminescence, dose response (AID 1933); type: functional; conditions: Homo sapiens
[12] = DRD fibroblast viability loss – cell-based, non-viral oncogenic, luminescence, dose response (AID 1934); type: functional; conditions: Homo sapiens
[13] = intracellular Trypanosoma cruzi inhibitors in host cells – cell-based, plate reader, cherry-pick samples, set 3, dose response (AID 651818); type: functional;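 note: compounds incubated with infected cells for about four days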

T2 sequence (P11940 whole entry, the tested form may be a part): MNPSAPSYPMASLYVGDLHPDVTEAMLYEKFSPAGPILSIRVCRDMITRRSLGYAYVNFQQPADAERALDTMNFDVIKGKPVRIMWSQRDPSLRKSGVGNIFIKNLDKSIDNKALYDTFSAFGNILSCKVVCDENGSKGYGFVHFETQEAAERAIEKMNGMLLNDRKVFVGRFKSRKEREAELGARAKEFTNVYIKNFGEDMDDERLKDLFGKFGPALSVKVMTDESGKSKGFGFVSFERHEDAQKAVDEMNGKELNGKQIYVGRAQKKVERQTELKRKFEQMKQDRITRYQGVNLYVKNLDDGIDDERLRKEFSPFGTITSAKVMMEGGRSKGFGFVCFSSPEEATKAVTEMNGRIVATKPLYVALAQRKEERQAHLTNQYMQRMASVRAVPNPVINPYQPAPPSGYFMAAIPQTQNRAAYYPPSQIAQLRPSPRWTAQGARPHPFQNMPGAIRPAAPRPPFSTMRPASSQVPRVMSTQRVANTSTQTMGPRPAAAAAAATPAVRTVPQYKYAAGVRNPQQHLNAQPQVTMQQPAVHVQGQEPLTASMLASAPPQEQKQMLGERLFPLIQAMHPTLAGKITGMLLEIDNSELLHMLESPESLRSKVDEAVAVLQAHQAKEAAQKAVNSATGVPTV
Genome polyprotein, sequence (P29990 2492-3391 limits assumed): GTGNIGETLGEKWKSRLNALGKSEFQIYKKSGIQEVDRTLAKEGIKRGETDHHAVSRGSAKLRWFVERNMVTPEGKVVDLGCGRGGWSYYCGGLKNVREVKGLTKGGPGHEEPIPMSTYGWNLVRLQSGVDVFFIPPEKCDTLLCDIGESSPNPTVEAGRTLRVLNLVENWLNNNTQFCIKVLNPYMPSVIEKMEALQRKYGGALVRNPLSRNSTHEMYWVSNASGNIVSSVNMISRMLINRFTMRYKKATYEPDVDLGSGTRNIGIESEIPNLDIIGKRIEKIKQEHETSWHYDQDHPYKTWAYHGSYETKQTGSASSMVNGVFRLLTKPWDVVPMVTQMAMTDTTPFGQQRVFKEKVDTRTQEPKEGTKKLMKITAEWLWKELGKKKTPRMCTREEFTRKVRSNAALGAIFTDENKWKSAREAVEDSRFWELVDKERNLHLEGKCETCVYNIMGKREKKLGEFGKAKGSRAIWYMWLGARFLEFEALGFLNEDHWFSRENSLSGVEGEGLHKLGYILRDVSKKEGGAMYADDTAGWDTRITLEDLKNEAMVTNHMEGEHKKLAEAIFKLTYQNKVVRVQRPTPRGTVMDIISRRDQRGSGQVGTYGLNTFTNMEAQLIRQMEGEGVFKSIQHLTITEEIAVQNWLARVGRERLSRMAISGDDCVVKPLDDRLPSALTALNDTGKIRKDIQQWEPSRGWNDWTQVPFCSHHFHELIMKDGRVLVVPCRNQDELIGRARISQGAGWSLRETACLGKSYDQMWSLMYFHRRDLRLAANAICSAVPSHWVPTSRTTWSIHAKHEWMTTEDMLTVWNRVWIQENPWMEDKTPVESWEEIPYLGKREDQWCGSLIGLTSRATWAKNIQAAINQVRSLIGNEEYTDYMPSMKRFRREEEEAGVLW

## COC(CNc1ncnc2c1cnn2C)OC
[1]
  IC50: > 47.1 µM (inactive)
[2]
  EC50: > 53 µM (inactive)

## COc1ccc(C(=O)NC(=S)Nc2cccc(NC(=O)c3ccco3)c2)cc1[N+](=O)[O-]
[3]
  IC50: > 66 µM (inactive)
[4]
  IC50: > 66 µM (inactive)

## CN(CC1CCOCC1)C(=O)CC1C(=O)NCCN1Cc1ccc(Cl)c(F)c1 (stereo unspecified)
[1]
  IC50: > 47.1 µM (inactive)
[2]
  EC50: > 53 µM (inactive)

## CCN(c1ccccc1)S(=O)(=O)c1ccc(NC(=O)c2ccco2)cc1
[1]
  IC50: > 47.1 µM (inactive)
[2]
  EC50: > 53 µM (inactive)

## CC(SC1=NCCS1)C(=O)Nc1nnc(-c2ccc(Br)cc2)s1 (stereo unspecified)
[1]
  IC50: > 47.1 µM (inactive)
[2]
  EC50: > 53 µM (inactive)

## COc1ccc(C2=NN=C(c3ccco3)Nc3ccc(F)cc32)cc1
[1]
  IC50: > 47.1 µM (inactive)
[2]
  EC50: > 53 µM (inactive)

## COc1ccc(NC(=O)CCCC2CCCCC2)cc1S(=O)(=O)N1CCCCC1
[1]
  IC50: > 47.1 µM (inactive)
[2]
  EC50: > 53 µM (inactive)

## CCOC(=O)C1C(C)=CC(=O)CC1c1ccco1 (stereo unspecified)
[1]
  IC50: > 47.1 µM (inactive)
[2]
  EC50: > 53 µM (inactive)

## CCCn1c(O)c(N=NC(=O)c2ccco2)c2ccccc21
[5]
  CC50: > 40 µM (active)
[6]
  CC50: > 40 µM (active)
[7]
  EC50: > 195 µM (not active)

## CCOC(=O)CSc1nc2c(c(=O)[nH]c(=O)n2C)n1C/C=C(/C)Cl
[3]
  IC50: > 66 µM (inactive)
[4]
  IC50: > 66 µM (inactive)

## CCOC(=O)c1c(N)sc2c1CCS(=O)(=O)C2
[3]
  IC50: > 66 µM (inactive)
[4]
  IC50: > 66 µM (inactive)

## CC1=NN(c2ccccc2)C(=O)/C1=C/c1cccs1
Protein RecA
  EC50: 4.53 µM (active)
Genome polyprotein
  IC50: 46.8 µM (active)
[8]
  AC50: 4.26 µM (active)

## O=C(CSc1nncc2ccccc12)N1CCOCC1
[3]
  IC50: > 66 µM (inactive)
[4]
  IC50: > 66 µM (inactive)

## CN(C)c1ccc(C(=O)c2ccccc2C(=O)O)cc1[N+](=O)[O-]
BJ [9]
  EC50: > 150 µM (not active)
BJ [10]
  EC50: > 150 µM (not active)
BJ [11]
  EC50: > 150 µM (not active)
[12]
  EC50: 102 µM (active)

## CC(C)(C)C(=O)Nc1c2c(nn1-c1ccc(F)cc1)CSC2
[3]
  IC50: > 66 µM (inactive)
[4]
  IC50: > 66 µM (inactive)

## O=C1CC(SC(=S)C2CCCC2=O)C(=O)N1 (stereo unspecified)
[3]
  IC50: > 66 µM (inactive)
Genome polyprotein
  IC50: 45.4 µM (active)
[4]
  IC50: > 66 µM (inactive)

## Cc1ccsc1C(=O)N/N=C/c1ccc2c(c1)OCO2
BJ [9]
  EC50: > 150 µM (inconclusive)
BJ [10]
  EC50: 11.6 µM (inconclusive)
BJ [11]
  EC50: 15.4 µM (active)
[12]
  EC50: 9.95 µM (inconclusive)

## C/C(=N\Nc1cc(C)nc(-c2ccccc2)n1)c1cccc([N+](=O)[O-])c1
[1]
  IC50: > 47.1 µM (inactive)
[2]
  EC50: > 53 µM (inactive)

## Cc1n[nH]c2c(=S)[nH]c(=O)[nH]c12
[3]
  IC50: > 66 µM (inactive)
[4]
  IC50: > 66 µM (inactive)

## C[C@H](CO)N1C[C@H](C)[C@H](CN(C)Cc2ccc(C(F)(F)F)cc2)Oc2ccc(NC(=O)Nc3cccc4ccccc34)cc2C1=O
[13]
  AC50: 2.81 µM (active)

## C[C@@H]1CN([C@H](C)CO)C(=O)Cc2cc(NC(=O)C3CCCCC3)ccc2O[C@H]1CN(C)Cc1ccc(Oc2ccccc2)cc1
[13]
  AC50: 2.45 µM (active)

## C[C@@H]1CN([C@H](C)CO)C(=O)c2cccc(NC(=O)Nc3ccc(C(F)(F)F)cc3)c2O[C@H]1CN(C)C(=O)Nc1ccc2c(c1)OCO2
[13]
  AC50: 6.12 µM (active)

## C[C@H]1CN([C@@H](C)CO)C(=O)Cc2cc(NC(=O)CCCCCC(=O)Nc3ccccc3N)ccc2O[C@@H]1CN(C)Cc1ccc(C(F)(F)F)cc1
[13]
  AC50: 5.01 µM (active)

## C[C@H](CO)N1C[C@H](C)[C@H](CN(C)Cc2ccc(Oc3ccccc3)cc2)Oc2c(NC(=O)c3cnccn3)cccc2C1=O
[13]
  AC50: 5.22 µM (active)

## COc1ccc(S(=O)(=O)N(C)C[C@@H]2OCCCC[C@@H](C)Oc3ccc(NC(=O)Nc4ccc(C(F)(F)F)cc4)cc3C(=O)N([C@H](C)CO)C[C@@H]2C)cc1
[13]
  AC50: 5.92 µM (active)

— ChEMBL document CHEMBL1201862, “PubChem BioAssay data set” (2004)
